{
  "source": "paper PMC12751141",
  "about": "“Disrupting α-Synuclein–ClpP interaction restores mitochondrial function and attenuates neuropathology in Parkinson’s disease models” (Molecular Neurodegeneration, 2025)",
  "key": {"[1]": {"system": "αSyn–ClpP binding", "assay": "Immunoprecipitation of recombinant ClpP and αSyn in vitro", "design": "species or system human", "conditions": "recombinant ClpP pre-incubated with peptide 30 min before αSyn; anti-ClpP IP; 3 independent experiments", "protocol": "The human recombinant WT- (#S-1001-2), A53T- (#S-1001-2), ΔNAC- (#S-1015-1) and ΔC- (#S-1012-1) αSyn and FITC-αSyn (S-1113-2) were purchased from rPeptide. The human recombinant αSyn pre-formed fibrils (PFF) (Type 1) (SPR-322) and ATTO-594-PFF (SPR-322B-A594) were purchased from StressMarq Biosciences (Bioactivity has been widely validated via various approaches, e.g. TEM, ThT).\nCells or tissues were lysed in total lysis buffer (50mM Tris-HCl, pH 7.5, 150mM NaCl, 1% Triton X-100, and protease inhibitor). Total protein lysates (800 µg) were incubated with the indicated antibodies overnight at 4 °C followed by the addition of protein A/G beads (sc-2003, Santa Cruz) for 2 h at 4 °C. Various recombinant αSyn and Clpp (500 ng) were incubated in in vitro interaction buffer (20mM Tris-HCl pH 7.5, 100mM KCl, 2mM MgCl2 and 0.1% Triton-X100) for 30 min at room temperature, and then incubated with indicated antibodies overnight at 4 °C followed by the addition of protein A/G beads for 2 h at 4 °C. The beads with immuno-precipitates were pulled down at 4000 g and washed four times with total lysis buffer/in vitro interaction buffer in the presence of 0.1% Triton X-100 and were analyzed by western blot analysis."}, "[2]": {"system": "αSyn oligomerization (VN/VC-αSyn), SH-SY5Y cells", "assay": "BiFC split-Venus αSyn oligomerization in SH-SY5Y cells", "type": "cell-based", "text": "To construct truncated-αSyn plasmids, pcDNA3.1(-) was digested with BsteII and XbaI, and ΔN-, ΔC- and ΔNAC-αSyn was PCR-amplified using self-designed primers and inserted into the plasmid backbone. Cells were transfected with TransIT-2020 (Mirus Bio, LLC) following the manufacturer’s protocol.\nThe bimolecular fluorescence was examined 24-hour after transfection (n = 3, one-way ANOVA with Tukey’s post-hoc test, scale bar = 30 μm). (D) Quantification of the concentration (ng/ml) of extracellular αSyn monomer and oligomer, and intracellular αSyn oligomer in Tet-inducible SH-SY5Y cells that were pre-treated with TAT or CS2 peptide 30-minute before adding doxycycline (Dox) to induce αSyn expression. The concentration of αSyn species was determined by ELISA (n = 4, one-way ANOVA with Tukey’s post-hoc test; data are mean ± SEM). (E) Representative images of Mito-SOX staining in SH-SY5Y cells that were pre-treated with TAT or CS2 peptide and transfected with split Venus-αSyn vectors. Mitochondrial ROS production was determined by Mito-SOX staining after 24-hour transfection (n = 4, two-tailed Student’s t test, scale bar = 30 μm).\nThe bimolecular fluorescence was examined 24-hour after the transfection and quantitated (n = 14 areas/group, one-way ANOVA with Tukey’s post-hoc test, data are mean ± SEM)."}, "[3]": {"system": "mThy1-hSNCA mice", "assay": "Y-maze test in mThy1-hSNCA mice", "type": "in vivo, mouse", "protocol": "(§1) C57BL/6 N-Tg (Thy1-SNCA)15Mjff/J (JAX: 017682) breeders (C57Bl/6NJ genetic background) were purchased from Jackson Laboratories. The mice were mated, bred, and genotyped in the animal facility of Case Western Reserve University. All mice were maintained at a 12-hour light/dark cycle (on 6 am, off 6 pm). All randomization and peptide treatments in mThy1-hSNCA mice were prepared by an experimenter not associated with the behavioral and neuropathology analysis. Only male mice were used in the study. mThy1-hSNCA transgenic mice and their age-matched WT littermates were implanted with a 28-day subcutaneous osmotic pump (Alzet, Cupertino CA, Model 2004) containing either TAT control peptide or CS2 peptide, which delivered the peptides at indicated rate (1 or 3 or 10 mg/kg/day). The pump was replaced once every four weeks. All mice were sacrificed at age of 10-month for neuropathology assessment.\nOn the test day, mice at 6-month-old were brought to the testing room one hour before performing the Y-maze test to allow habituation. The mice were placed in the middle of the Y-maze and allowed to explore the three arms for 4-min. During exploration, the arm entries were recorded. The equipment was cleaned after every test to avoid odor disturbance. Spontaneous alternation was defined as a successive entry into three different arms on overlapping triplet sets.\nFig. 7 CS2 treatment is protective in mThy1-hSNCA mouse model of PD. (A) Experimental schematic of CS2 treatment in mThy1-hSNCA (Thy1) mouse model of PD: TAT or CS2 peptide was administered (3 mg/kg/day) via subcutaneous osmotic pump (O.P.) in Thy1 mice and their wild-type (WT) littermates starting from age of 4-month till 10-month. […] (D) Representative images of pS129-αSyn staining in substantia nigra of WT and Thy1 mice treated with TAT or CS2 peptide (scale bar = 100 μm). […] (G) Representative images of ClpP and tyrosine […] (TH) staining on the brain coronal sections from TAT or CS2-treated Thy1 mice and their WT littermates (scale bar = 100 μm). […]"}, "[4]": {"system": "mThy1-hSNCA mice", "assay": "Rotarod test in mThy1-hSNCA mice", "type": "in vivo, mouse", "conditions": "3 mg/kg/day s.c.; age of 10-month; n = 13–15 mice/group; vs TAT", "protocol": "as §1\nMice were trained for the accelerating test on Day 1–3. On Day 5, motor coordination was assessed in TAT or CS2 treated mThy1-hSNCA transgenic mice and their age-matched wild-type littermates at age of 10-month, by measuring latency on a rotarod in an accelerated program for 300 s. Body weights of mThy1-hSNCA mice and wild-type littermates were recorded throughout the study period.\nFig. 7 CS2 treatment is protective in mThy1-hSNCA mouse model of PD. […]"}},
  "note": "“Also recorded” adds a separate entry of the source.",
  "data": [
    {"smiles": "CC(C)[C@H](NC(=O)CNC(=O)CNC(=O)CCCCCNC(=O)[C@H](CCCNC(=N)N)NC(=O)[C@H](CCCNC(=N)N)NC(=O)[C@H](CCCNC(=N)N)NC(=O)[C@H](CCC(N)=O)NC(=O)[C@H](CCCNC(=N)N)NC(=O)[C@H](CCCNC(=N)N)NC(=O)[C@H](CCCCN)NC(=O)[C@H](CCCCN)NC(=O)[C@H](CCCNC(=N)N)NC(=O)CNC(=O)[C@@H](N)Cc1ccc(O)cc1)C(=O)N[C@H](C(=O)N[C@H](C(=O)N[C@@H](C)C(=O)O)[C@@H](C)O)C(C)C", "note": "[CS2, TAT-C6-GGVVTA]", "values": [
      {"measurement": "αSyn–ClpP binding, recombinant", "setting": "[1]", "value": "significantly reduced αSyn–ClpP binding"},
      {"measurement": "αSyn oligomerization, ClpP-deficient cells", "setting": "[2]; ClpPsh SH-SY5Y, effect of reducing αSyn oligomerization, n = 14 areas/group", "value": "no protective effect; also recorded: not observed in ClpP-deficient cells"},
      {"measurement": "BiFC signal / αSyn oligomerization", "setting": "[2]; SH-SY5Y expressing VN/VC-αSyn, 24-hour after transfection", "value": "significantly reduced BiFC signal intensity"},
      {"measurement": "IC50", "setting": "[2]; SH-SY5Y expressing VN/VC-αSyn, pretreatment, 24-hour after transfection, n = 3, read-out: IC50, BiFC αSyn oligomer formation", "value": "~2500", "unit": "nM"},
      {"measurement": "cognitive activity in Y-maze", "setting": "[3]; 3 mg/kg/day s.c., age of 6-month, n = 15 mice/group, vs TAT", "value": "improved cognitive activity"},
      {"measurement": "spontaneous alternation, dose dependence", "setting": "[3]; 1, 3 or 10 mg/kg/day s.c. osmotic mini pump, 8 weeks from 4 months, tested at 6 months, n = 3 mice/group", "value": "improved spontaneous alternation behavior in a dose-dependent manner"},
      {"measurement": "spontaneous alternation, 3 vs 10 mg/kg/day", "setting": "[3]; s.c., 8 weeks, comparison of 3 and 10 mg/kg/day", "value": "no significant difference between 3 and 10 mg/kg/day"},
      {"measurement": "motor coordination on rotarod (latency to fall)", "setting": "[4]", "value": "enhanced motor coordination"}
    ]}
  ]
}
